Measurements from US20070259903A1 (priority 2006, published 2007).
Values after ≈ are worked out from the molar mass of the structure shown. Like-named read-outs stand apart in the source and are kept apart here.

Key:
Flu A (H3N2) = experiment: Virucidal activity: virus pre-incubated with compound, applied to MDCK cells 1 h, removed, CPE after 6 days; format: cell-based, influenza A virus
Flu A (H5N1) = format: cell-based, influenza A virus; settings: virus treated one hour
Flu B Shanghai virus = experiment: Virucidal activity: virus pre-incubated with compound 1 h, applied to MDCK cells 1 h, removed, CPE after 6 days; format: cell-based, influenza B virus
Experimental: For each test, a stock solution of the lead Compound C1 was made by first dissolving it in a small amount (50-100 microliters) of absolute ethanol (ETOH) followed by addition of growth nutrient medium to a final volume of 1 ml to bring the stock concentration of 20 mg/ml. It was tested at a concentration of 100 μg/ml, with half-log dilutions down to 0.032 μg/ml.
The compound C1 and the virus being tested were incubated together at 8 different concentrations for 1 hour at 37° C. Then virus/compound mixture applied to established cultured MDCK (Madin-Darby canine kidney) cells for 1 hour at 37° C. After 1 hour, the Virus/compound were removed, and replaced with new virus/compound free medium, and the indicator cells were further incubated for 6 days. Virus that survived the one hour pre-incubation and one hour exposure to indicator cells caused cytopathic effect (CPE) development. Results were evaluated by microscopic inspection (visual) as well as a spectrophotometic Neutral Red Dye Assay. The values shown represent the concentration (μg/ml) of C1 that caused a 50% virucidal effect (EC50). […]
The EC50 values were calculated by extrapolation from a plot of concentration versus virucidal activity data on semi-log paper. This allowed us to quantify complete virus killing of a small amount of virus (about 50-100 cell culture infectious doses).

SARS (urbani) = format: cell-based, Severe Acute Respiratory Syndrome (SARS) virus
[1] = tested on: Flu A (H5N1) Vietnam/1203/2004 H; format: cell-based, influenza A virus; settings: MDCK cells, continuous exposure
Flu B Shanghai/361/02 = format: cell-based, influenza B virus; settings: MDCK cells, continuous exposure
Experimental: (§1) The antiviral activity of barbituric acid analogs was also evaluated under conditions where the indicator cells to which virus had been previously added and then continuously exposed to different concentrations of C1 for the duration of the experiments. Eight different doses of C1 ranging from 100 μg/ml to half-log dilutions down to 0.032 μg/ml were added to the indicator cells after adding the indicated virus. This virus-cell combination was continuously exposed to C1 until untreated control wells developed a cytopathic effect (CPE) usually after 4 to 6 days of incubation at 37° C. At the end of incubation period at 37° C., the resulting cytopathic effect (CPE) in control and test wells was assessed by visual and a Neutral Red Dye assay.
(§2) Results of CPE versus concentration of C1 were plotted on a semi-log paper and the dose of C1 that caused a 50% inhibition of virus mediated CPE (EC50) was calculated.

Measles Chicago = format: cell-based; settings: CV-1 cells, continuous exposure
Experimental: as §1, §2

Rhinovirus HGP = format: cell-based; settings: HeLa Ohio-1 cells, continuous exposure
Experimental: as §1, §2

PIV 14702 = format: cell-based, Parainfluenza virus; settings: MA-104 cells, continuous exposure
Experimental: as §1, §2

RSV A A2 = format: cell-based, Respiratory Synsycitial virus; settings: MA-104 cells, continuous exposure
Experimental: as §1, §2

[2] = tested on: Influenza A/New Caledonia/20/99 (H1N1); experiment: ETOH vs DMSO comparison: compound + virus 1 h at room temperature, then left on indicator cells 3 days, neutral red; format: cell-based, influenza A virus; settings: exposed to c1 + virus for 3 days
[3] = tested on: Influenza A/New Caledonia/20/99 (H1N1); experiment: ETOH vs DMSO comparison: compound + virus 1 h at room temperature, on indicator cells 1 hour then removed, neutral red; format: cell-based, influenza A virus; settings: exposed to c1 + virus for 1 hour
[4] = tested on: Influenza A/California/7/04 (H3N2); experiment: ETOH vs DMSO comparison: compound + virus 1 h at room temperature, then left on indicator cells 3 days, neutral red; format: cell-based, influenza A virus; settings: exposed to c1 + virus for 3 days
[5] = tested on: Influenza A/California/7/04 (H3N2); experiment: ETOH vs DMSO comparison: compound + virus 1 h at room temperature, on indicator cells 1 hour then removed, neutral red; format: cell-based, influenza A virus; settings: exposed to c1 + virus for 1 hour

Compound: CCCCN1C(=O)CC(=O)N(CCCC)C1=S [Compound C1, 4,6(1H, 5H)-Pyrimidinedione, 1,3-dibutyldihydro-2-thioxo]
- inactivation of the virus by treatment (Flu A (H3N2); FIG. 2): virtually complete inactivation
- dose that caused a 50% inactivation (EC50) (Flu A (H3N2); visual method, virus treated for 4 hours (so in the source), MDCK indicator cells): 5.5 µg/mL
- dose that caused a 50% inactivation (EC50) (Flu A (H5N1); Neutral red assay, after 6 days): 37 µg/mL
- dose that caused a 50% inactivation (EC50) (Flu A (H5N1); visual method, % CPE after 6 days): 6.0 µg/mL
- dose causing 50% inactivation of the virus (Flu B Shanghai virus; Neutral red dye assay): 37 µg/mL
- dose causing 50% inactivation of the virus (Flu B Shanghai virus; visual method): 42 µg/mL
- dose causing 50% inactivation of the virus (SARS (urbani); Neutral Red dye assay): 53 µg/mL
- dose causing 50% inactivation of the virus (SARS (urbani); visual method): 12 µg/mL
- EC50 ([1]; Neutral Red): 3 µg/mL (≈ 11.7 µM)
- EC50 ([1]; Visual): 3 µg/mL (≈ 11.7 µM)
- EC50 (Flu B Shanghai/361/02; Neutral Red): 3 µg/mL
- EC50 (Flu B Shanghai/361/02; Visual): 3 µg/mL
- EC50 (Measles Chicago; Neutral Red): 40 µg/mL
- EC50 (Measles Chicago; Visual): 30 µg/mL
- EC50 (Rhinovirus HGP; Neutral Red): 30 µg/mL
- EC50 (Rhinovirus HGP; Visual): 30 µg/mL
- EC50 (PIV 14702; Neutral Red): 30 µg/mL
- EC50 (PIV 14702; Visual): 30 µg/mL
- EC50 (RSV A A2; Neutral Red): 30 µg/mL
- EC50 (RSV A A2; Visual): 30 µg/mL
- Increase virucidal activity of C1 in DMSO ([2]; DMSO versus ETOH): 200%
- EC50 of C1 in DMSO ([2]; dissolved in DMSO, neutral red): >2.6 µg/mL
- EC50 of C1 in ETOH ([2]; dissolved in ETOH, neutral red): >4.5 µg/mL
- Increase virucidal activity of C1 in DMSO ([3]; DMSO versus ETOH): 140%
- EC50 of C1 in DMSO ([3]; dissolved in DMSO, neutral red): 30.0 µg/mL
- EC50 of C1 in ETOH ([3]; dissolved in ETOH, neutral red): 42.0 µg/mL
- Increase virucidal activity of C1 in DMSO ([4]; DMSO versus ETOH): 0%
- EC50 of C1 in DMSO ([4]; dissolved in DMSO, neutral red): >1.9 µg/mL
- EC50 of C1 in ETOH ([4]; dissolved in ETOH, neutral red): >1.8 µg/mL
- Increase virucidal activity of C1 in DMSO ([5]; DMSO versus ETOH): 220%
- EC50 of C1 in DMSO ([5]; dissolved in DMSO, neutral red): 20.0 µg/mL
- EC50 of C1 in ETOH ([5]; dissolved in ETOH, neutral red): 42.0 µg/mL
